Measured values taken from patent publication US9695132B2, “Heteroaryl compounds and uses thereof” (Celgene CAR LLC, priority 2013, dated 2017).
“Also recorded” adds a separate entry of the source.

What was measured:
[1] = target: pFGFR4 in MDA-MB-453 cells (Homo sapiens, UniProt P22455); test: Washout experiment (pFGFR4 after compound removal); type: cell-based; details: 1000-2000 nM for 1 hr, washed, followed up to 24 hr
Experimental: The cells were allowed to settle down for 4 hrs and were then maintained in low-serum (0.1% FBS) media overnight. The following morning, the media was removed and the cells were treated with 1000-2000 nM of test compound in low-serum media for 1 hr. The cells were washed free of test compound (3×) with PBS (Invitrogen). One set of cells was immediately lysed as indicated above as the 0 hr time point. The remaining cells were incubated with the appropriate complete growth media (10-20% FBS) for 1, 2, 4, 8, 16 (in certain circumstances) and 24 hr. DMSO (0.5%) controls were collected at all time points.

FGFR4-WT = FGFR4-WT (Homo sapiens (Human), UniProt P22455); test: Omnia assay for potency assessment against FGFR4 enzyme; type: biochemical; details: method b: [FGFR4-WT]=2.5 nM (SignalChem), [ATP]=250 uM, [Y10-Sox]=10 uM
FGFR4-WT, sequence (P22455 22-802): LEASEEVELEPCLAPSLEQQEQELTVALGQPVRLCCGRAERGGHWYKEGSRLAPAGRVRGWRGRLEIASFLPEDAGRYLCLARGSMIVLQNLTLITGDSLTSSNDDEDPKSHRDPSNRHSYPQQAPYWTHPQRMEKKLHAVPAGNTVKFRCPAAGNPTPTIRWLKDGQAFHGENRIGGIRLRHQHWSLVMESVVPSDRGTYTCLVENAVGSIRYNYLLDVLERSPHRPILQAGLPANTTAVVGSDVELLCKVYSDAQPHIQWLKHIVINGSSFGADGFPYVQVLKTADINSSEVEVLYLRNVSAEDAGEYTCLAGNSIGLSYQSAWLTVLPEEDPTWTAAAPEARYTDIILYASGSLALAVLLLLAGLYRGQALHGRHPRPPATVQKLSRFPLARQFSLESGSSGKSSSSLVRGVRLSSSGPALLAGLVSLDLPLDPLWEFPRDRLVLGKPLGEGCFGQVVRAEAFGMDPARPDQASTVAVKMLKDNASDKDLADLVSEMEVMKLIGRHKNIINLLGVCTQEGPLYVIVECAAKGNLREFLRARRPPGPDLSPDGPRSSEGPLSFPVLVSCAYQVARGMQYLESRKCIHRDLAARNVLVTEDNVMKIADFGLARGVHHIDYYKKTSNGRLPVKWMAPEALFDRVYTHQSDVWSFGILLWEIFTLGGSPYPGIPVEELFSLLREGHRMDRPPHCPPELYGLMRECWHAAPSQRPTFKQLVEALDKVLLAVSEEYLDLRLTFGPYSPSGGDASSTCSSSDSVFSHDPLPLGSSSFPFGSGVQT
Procedure, shortened: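 Continuous fluorescence kinase assay using wild-type FGFR4 from either of two commercial sources, Tyr-Sox peptide substrate and ATP in pH 7.5 Tris buffer with MgCl2, EGTA, β-glycerophosphate, glycerol and DTT.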

[2] = target: FGFR4 in MDA-MB-453 cells (Homo sapiens, UniProt P22455); test: Target occupancy assay with biotinylated covalent probe I-127; type: cell-based
FGFR4 in MDA-MB-453 cells, sequence (P22455 22-802 limits assumed): as the sequence (P22455 22-802) above
Experimental: In order to assess free FGFR4 protein a biotinylated covalent probe was utilized. […] The reaction was incubated for 2 hr at room temperature. The samples and probe mixture were transferred to a FGFR4-coated MSD plate for 2 hr at room temperature. MSD signals were obtained with an anti-streptavidin Sulfo-tag (Meso Scale) antibody for 1 hr at room temperature. […] If a compound completely (100%) covalently modies FGFR4 no free FGFR4 should be available for covalent modification by the biotinylated probe and subsequent binding to streptavidin and detection.

pFGFR4 in MDA-MB-453 cells, sequence (P22455 22-802 limits assumed): as the sequence (P22455 22-802) above

Structure (SMILES) | duration of action against pFGFR4 signalling after washout [1] | IC50 (FGFR4-WT) [µM] | EC50 [2] [µM]
C=CC(=O)NC1CCCCC1Nc1ncc2c(n1)N(Cc1cscn1)C(=O)N(c1c(Cl)c(OC)cc(OC)c1Cl)C2 (racemic) [Compound I-69] | prolonged inhibition of autophosphorylation of FGFR4; also recorded: prolonged duration of action |  | 
CCC(=O)Nc1cccc(CN2C(=O)N(c3c(Cl)c(OC)cc(OC)c3Cl)Cc3cnc(Nc4ccccc4NC(=O)CC)nc32)c1 [Compound I-234] | does not show prolonged duration of action; also recorded: does not have PDA | 0.101 to 0.5 | > 1
